Laboratory results from US9822124B2, “Bicyclic heteroaromatic carboxamide compounds useful as Pim kinase inhibitors” (Incyte Corporation, priority 2014, dated 2017).

Legend:
Format in all cases: biochemical
[1] = target: Pim-2 (Homo sapiens (Human), UniProt Q9P1W9); experiment: Pim-2 kinase assay (TR-FRET, Fluorescein-labeled CREBtide peptide substrate); conditions: 1 mM ATP; read-out: Pim2 IC50
Outline: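 Human Pim-2 (1 nM) phosphorylated 0.05 μM fluorescein-CREBtide with 1 mM ATP for 2 h at 25 °C in Tris buffer pH 7.5 containing MgCl2, DTT, BSA and Tween-20. Reactions were stopped with EDTA and Tb-anti-pSer133 antibody was added, and TR-FRET was read after 30 min.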

[2] = target: Pim-3 (Homo sapiens (Human), UniProt Q86V86); experiment: Pim-3 kinase assay (AlphaScreen, Biotin-labeled BAD peptide substrate); conditions: 1 mM ATP; read-out: Pim3 IC50
Outline: (§1)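 Kinase reactions ran 1 h at 25° C, pH 7.5, with 0.05 μM biotin-BAD peptide, 1 mM ATP, and 2.5 μM Pim-1 or 1.25 μM Pim-3. EDTA stop buffer carried anti-phospho-Bad (Ser112) antibody plus streptavidin donor and Protein-A acceptor beads. AlphaScreen signal was read after 1 h in the dark.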

[3] = target: Pim-1 (Homo sapiens (Human), UniProt P11309); experiment: Pim-1 kinase assay (AlphaScreen, Biotin-labeled BAD peptide substrate); conditions: 1 mM ATP; read-out: Pim1 IC50
Chain of Pim-1 (P11309 whole entry): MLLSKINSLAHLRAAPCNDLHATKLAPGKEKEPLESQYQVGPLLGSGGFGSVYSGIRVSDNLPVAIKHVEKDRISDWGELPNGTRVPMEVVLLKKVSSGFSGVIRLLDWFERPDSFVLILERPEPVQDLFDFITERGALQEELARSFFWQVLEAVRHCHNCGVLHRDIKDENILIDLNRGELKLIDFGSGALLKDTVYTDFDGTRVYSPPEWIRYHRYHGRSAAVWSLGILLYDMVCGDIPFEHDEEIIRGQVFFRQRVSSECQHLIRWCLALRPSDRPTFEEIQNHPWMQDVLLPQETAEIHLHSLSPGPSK
Outline: as §1

Chain of Pim-2 (Q9P1W9 whole entry): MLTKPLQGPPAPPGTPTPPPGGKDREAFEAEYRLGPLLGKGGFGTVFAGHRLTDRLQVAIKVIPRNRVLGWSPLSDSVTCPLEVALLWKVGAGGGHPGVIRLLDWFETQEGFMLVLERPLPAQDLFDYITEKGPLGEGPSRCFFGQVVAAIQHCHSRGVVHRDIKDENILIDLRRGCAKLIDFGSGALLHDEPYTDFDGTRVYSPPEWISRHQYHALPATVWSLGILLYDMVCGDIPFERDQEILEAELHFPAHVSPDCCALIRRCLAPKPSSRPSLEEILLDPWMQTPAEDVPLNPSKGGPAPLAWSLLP

Structure (SMILES)	IC50 [1]	IC50 [2]	IC50 [3]
CC(C)c1csc2ccc(C(=O)Nc3cnccc3N3C[C@H](C)C[C@H](N)C3)nc12 [Example 62, N-(4-((3S,5R)-3-Amino-5-methylpiperidin-1-yl)pyridin-3-yl)-3-isopropylthieno[3,2-b]pyridine-5-carboxamide]	≤ 100 nM	≤ 10 nM	≤ 10 nM
C[C@@H]1C[C@H](N)CN(c2ccncc2NC(=O)c2ccc3scc(-c4cnn(C)c4)c3n2)C1 [Example 63, N-(4-((3S,5R)-3-Amino-5-methylpiperidin-1-yl)pyridin-3-yl)-3-(1-methyl-1H-pyrazol-4-yl)thieno[3,2-b]pyridine-5-carboxamide]	> 2000 nM	> 40 nM	≤ 10 nM
COc1ccc(F)c(-c2csc3ccc(C(=O)Nc4cnccc4N4C[C@H](C)C[C@H](N)C4)nc23)c1F [Example 64, N-(4-((3S,5R)-3-Amino-5-methylpiperidin-1-yl)pyridin-3-yl)-3-(2,6-difluoro-3-methoxyphenyl)thieno[3,2-b]pyridine-5-carboxamide]	100 to 1000 nM	10 to 50 nM	≤ 10 nM
C[C@@H]1C[C@H](N)CN(c2ccncc2NC(=O)c2ccc3scc(C4CC4)c3n2)C1 [Example 65, N-(4-((3S,5R)-3-Amino-5-methylpiperidin-1-yl)pyridin-3-yl)-3-cyclopropylthieno[3,2-b]pyridine-5-carboxamide]	≤ 100 nM	≤ 10 nM	≤ 10 nM
CCc1csc2ccc(C(=O)Nc3cnccc3N3CCC[C@H](N)C3)nc12 [Example 66, N-{4-[(3S)-3-Aminopiperidin-1-yl]pyridin-3-yl}-3-ethylthieno[3,2-b]pyridine-5-carboxamide]	100 to 1000 nM	≤ 10 nM	≤ 10 nM
N[C@H]1CCCN(c2ccncc2NC(=O)c2ccc3scc(C4CC4)c3n2)C1 [Example 67, (S)-N-(4-(3-Aminopiperidin-1-yl)pyridin-3-yl)-3-cyclopropylthieno[3,2-b]pyridine-5-carboxamide]	100 to 1000 nM	≤ 10 nM	≤ 10 nM
CC(C)c1coc2ccc(C(=O)Nc3cnccc3[C@@H]3C[C@H](C)C[C@H](N)C3)nc12 [Example 68, N-{4-[(1R,3S,5S)-3-Amino-5-methylcyclohexyl]pyridin-3-yl}-3-isopropylfuro[3,2-b]pyridine-5-carboxamide]	≤ 100 nM	≤ 10 nM	≤ 10 nM
C[C@H]1CN(c2ccncc2NC(=O)c2ccc3cc(C4CC4)oc3n2)C[C@@H](N)[C@@H]1O [Example 69, N-{4-[(3R,4R,5S)-3-Amino-4-hydroxy-5-methylpiperidin-1-yl]pyridin-3-yl}-2-cyclopropylfuro[2,3-b]pyridine-6-carboxamide]	≤ 100 nM	≤ 10 nM	≤ 10 nM
C[C@@H]1C[C@H](N)CN(c2ccncc2NC(=O)c2ccc3cc(C4CC4)oc3n2)C1 [Example 70, N-{4-[(3S,5R)-3-Amino-5-methylpiperidin-1-yl]pyridin-3-yl}-2-cyclopropylfuro[2,3-b]pyridine-6-carboxamide]	≤ 100 nM	≤ 10 nM	≤ 10 nM
C[C@H]1CN(c2ccncc2NC(=O)c2ccc3cc([C@@H]4C[C@H]4c4ccccc4)oc3n2)C[C@@H](N)[C@@H]1O [Example 71, N-(4-((3R,4R,5S)-3-Amino-4-hydroxy-5-methylpiperidin-1-yl)pyridin-3-yl)-2-((1R,2R)-2-phenylcyclopropyl)furo[2,3-b]pyridine-6-carboxamide]	≤ 100 nM	≤ 10 nM	≤ 10 nM
C[C@H]1CN(c2ccncc2NC(=O)c2ccc3cc([C@H]4C[C@@H]4c4ccccc4)oc3n2)C[C@@H](N)[C@@H]1O [Example 72, N-(4-((3R,4R,5S)-3-Amino-4-hydroxy-5-methylpiperidin-1-yl)pyridin-3-yl)-2-((1S,2S)-2-phenylcyclopropyl)furo[2,3-b]pyridine-6-carboxamide]	1000 to 10000 nM	≤ 10 nM	≤ 10 nM
C[C@H]1CN(c2ccncc2NC(=O)c2ccc3ccn(C4CCC4)c3n2)C[C@@H](N)[C@@H]1O [Example 77, N-{4-[(3R,4R,5S)-3-Amino-4-hydroxy-5-methylpiperidin-1-yl]pyridin-3-yl}-1-cyclobutyl-1H-pyrrolo[2,3-b]pyridine-6-carboxamide]	1000 to 10000 nM	≤ 10 nM	≤ 10 nM
C[C@@H]1C[C@H](N)CN(c2ccncc2NC(=O)c2ccc3ccn(C4CCC4)c3n2)C1 [Example 78, N-{4-[(3S,5R)-3-Amino-5-methylpiperidin-1-yl]pyridin-3-yl}-1-cyclobutyl-1H-pyrrolo[2,3-b]pyridine-6-carboxamide]	100 to 1000 nM	≤ 10 nM	≤ 10 nM
C[C@H]1CN(c2ccncc2NC(=O)c2ccc3sc(C4CC4)nc3n2)C[C@@H](N)[C@@H]1O [Example 79, N-{4-[(3R,4R,5S)-3-Amino-4-hydroxy-5-methylpiperidin-1-yl]pyridin-3-yl}-2-cyclopropyl[1,3]thiazolo[4,5-b]pyridine-5-carboxamide]	100 to 1000 nM	≤ 10 nM	≤ 10 nM
C[C@@H]1C[C@H](N)CN(c2ccncc2NC(=O)c2ccc3sc(C4CC4)nc3n2)C1 [Example 80, N-(4-((3S,5R)-3-Amino-5-methylpiperidin-1-yl)pyridin-3-yl)-2-cyclopropylthiazolo[4,5-b]pyridine-5-carboxamide]	100 to 1000 nM	≤ 10 nM	≤ 10 nM
C[C@@H]1C[C@H](N)C[C@H](c2ccncc2NC(=O)c2ccn3ncc(-c4c(F)cc(CO)cc4F)c3n2)C1 [Example 81, N-{4-[(1R,3S,5S)-3-Amino-5-methylcyclohexyl]pyridin-3-yl}-3-[2,6-difluoro-4-(hydroxymethyl)phenyl]pyrazolo[1,5-a]pyrimidine-5-carboxamide]	≤ 100 nM	≤ 10 nM	≤ 10 nM
CC(C)c1cnn2ccc(C(=O)Nc3cnccc3[C@@H]3C[C@H](C)C[C@H](N)C3)nc12 [Example 82, N-{4-[(1R,3S,5S)-3-Amino-5-methylcyclohexyl]pyridin-3-yl}-3-isopropylpyrazolo[1,5-a]pyrimidine-5-carboxamide]	1000 to 10000 nM	10 to 50 nM	≤ 10 nM
C[C@@H]1C[C@H](N)C[C@H](c2ccncc2NC(=O)c2ccn3ncc(-c4c(F)cccc4F)c3n2)C1 [Example 83, N-{4-[(1R,3S,5S)-3-Amino-5-methylcyclohexyl]pyridin-3-yl}-3-(2,6-difluorophenyl)pyrazolo[1,5-a]pyrimidine-5-carboxamide]	100 to 1000 nM	≤ 10 nM	≤ 10 nM
COc1cc(F)c(-c2cnn3ccc(C(=O)Nc4cnccc4[C@@H]4C[C@H](C)C[C@H](N)C4)nc23)c(F)c1 [Example 84, N-{4-[(1R,3S,5S)-3-Amino-5-methylcyclohexyl]pyridin-3-yl}-3-(2,6-difluoro-4-methoxyphenyl)pyrazolo[1,5-a]pyrimidine-5-carboxamide]	≤ 100 nM	≤ 10 nM	≤ 10 nM
CCc1cc2nc(C(=O)Nc3cnccc3N3C[C@@H](N)[C@H](O)[C@@H](C)C3)ccc2s1 [Example 85, N-(4-((3R,4R,5S)-3-amino-4-hydroxy-5-methylpiperidin-1-yl)pyridin-3-yl)-2-ethylthieno[3,2-b]pyridine-5-carboxamide]	≤ 100 nM	≤ 10 nM	≤ 10 nM
